In PubChem BioAssay AID588845 (Broad Institute, 2011) one finds AC50 and viability fraction data, which are given here for nine compounds.

Active and inactive are the calls of the source. No rule for the calls is given here.

One test has as its system HMLE_shTWIST viability, CellTiter-Glo luminescence, 72 h. The test can be described thus: HMLE_shTWIST CSC-like cell viability loss, confirmation, CellTiter-Glo luminescence, dry powder, set 2 (AID 588845).
Details: not given
On the technique in general: ATP-based viability assays read luminescence as a measure of living cells.
Turning to `Cc1csc(NC(=O)c2ccc(COc3cccc(F)c3)o2)n1`, the AC50 (in general, the concentration at which the activity in the assay is half-maximal) was 1.7 µM.

`Cc1csc(NC(=O)c2ccc(COc3ccccc3F)o2)n1`: the AC50 was 0.13 µM.

On to `Cc1csc(NC(=O)c2ccc(COc3ccccc3)o2)n1`, for which the AC50 is 18.2 µM.

As to `Cc1csc(NC(=O)c2ccc(COc3cccc(Cl)c3)o2)n1`, the AC50 was 4.3 µM.

Take `CCc1ccc(/C=C/C(=O)NC2=NCCS2)cc1`: the AC50 was 11.7 µM.

Test system in the next test: not listed separately
Described as above. To be noted: HMLE_shTWIST viability, CellTiter-Glo luminescence, 72 h; at 32 µM (top of the series).
For `O=C(/C=C/c1ccc(Cl)c(Cl)c1)NC1=NCCS1`, the viability fraction was 71.5% (inactive).

On to `COc1ccc(/C=C/C(=O)NC2=NCCS2)c(OC)c1`, for which the viability fraction was 58.2% (inactive).

On to `O=C(/C=C/c1ccc(-c2ccccc2)cc1)NC1=NCCS1`, for which the viability fraction is 81.4% (inactive).

Turning to `CC(C)c1ccc(/C=C/C(=O)NC2=NCCS2)cc1`, the viability fraction is 8.35% (inactive).
